Results on five compounds are retold here after patent US8404650B2, “Methods of treating cancer with doxazolidine and prodrugs thereof” (priority 2005, dated 2013).

Where two headings read alike, the source gives them in different places.

One test relates to MCF-7/Adr. The test is described as follows: Growth inhibition of multidrug resistant MCF-7/Adr breast cancer cells (crystal violet). The format is cell-based. The note with it: for IC50: read-out: IC50 MCF-7/Adr; for Growth inhibition IC50, MCF-7/Adr, 24 h: 24 h drug treatment. As to the method: (§1) In vitro Activity. […] This cell suspension was dispensed in 200 μL aliquots (1000 cells/well) into the inside wells of 96-well tissue culture plates. Outside wells contained 200 μL of media. […] The medium was replaced with 90 μL of growth medium prior to addition of the drug. Doxaz was dissolved in DMSO at concentrations ranging from 50 μM to 1 mM. […] Serial dilutions (1:3 and 1:10) were made in sterile DMSO to yield seven solutions of decreasing drug concentration at 100× the respective working concentrations. […] Additionally, two lanes were treated with 10 μL of growth medium containing 10% sterile DMSO and one lane was treated with 90 μL of 1.5 M Tris HCl. […]
(§2) Cell growth inhibition experiments initially focused on MCF-7, MCF-7/Adr, SK-HEP-1, and Hep G2 cancer cells as well as rat cardiomyocytes as a measure of cardiotoxicity and Vero cells (green monkey kidney cells) as an additional measure of normal cell toxicity.
(§3) Activity of plasmin-activated prodrugs.
(§4) A more thorough characterization of the growth inhibition of a variety of cancer cells as well as rat cardiomyocytes by Formula IV (aFK-PABC-Doxaz) was evaluated in comparison with inhibition of growth by Doxaz, Dox and aFK-PABC-Dox. Cells were treated with drug for 3 h and colony growth was measured at 3 to 5 days when cells reached about 80% confluence. […] The breast cancer cell lines represent the multi-drug resistant (MDR) phenotype with MCF-7/Adr cells and a cell line that is transfected with the gene for urokinase plasminogen activator (uPA), the primary enzyme responsible for cleavage of plasminogen to plasmin. Rat cardiomyocytes served as a model for comparison of drug cardiotoxicity.

The subject of a further test is cancer cells. The note with it: background statement; cited from earlier work.
Another test concerns MDA-MB-435. The test is described as follows: Growth inhibition of MDA-MB-435 breast cancer cells. The format is cell-based. The note with it: 3 h drug treatment, growth at 5 days; read-out: IC50 MDA-MB-435. The procedure: In vitro Activity. […] This cell suspension was dispensed in 200 μL aliquots (1000 cells/well) into the inside wells of 96-well tissue culture plates. Outside wells contained 200 μL of media. […] The medium was replaced with 90 μL of growth medium prior to addition of the drug. Doxaz was dissolved in DMSO at concentrations ranging from 50 μM to 1 mM. […] Serial dilutions (1:3 and 1:10) were made in sterile DMSO to yield seven solutions of decreasing drug concentration at 100× the respective working concentrations. […] Additionally, two lanes were treated with 10 μL of growth medium containing 10% sterile DMSO and one lane was treated with 90 μL of 1.5 M Tris HCl. The cells were incubated at 37° C. for 3 h, at which time the drug solutions were replaced with 200 μL of fresh growth medium.
as §3

The next test relates to MCF-7. The test is described as follows: Growth inhibition of MCF-7 sensitive breast cancer cells (colony formation, crystal violet). The format is cell-based, human. The procedure:
as §1, §2, §3, §4

A further test has as its system SK-HEP-1. As to the kind of experiment: Growth inhibition of SK-HEP-1 liver cancer cells. It counts as cell-based, human. The note with it: crystal violet; for Growth inhibition IC50, SK-HEP-1, 24 h: 24 h drug treatment. An excerpt: (§5) Cell growth inhibition experiments initially focused on MCF-7, MCF-7/Adr, SK-HEP-1, and Hep G2 cancer cells as well as rat cardiomyocytes as a measure of cardiotoxicity and Vero cells (green monkey kidney cells) as an additional measure of normal cell toxicity. […]

The next test relates to DU-145. As to the kind of experiment: Growth inhibition of DU-145 prostate cancer cells. It counts as cell-based. The note with it: for Cell growth inhibition IC50, DU-145: 24 h drug treatment, crystal violet. The procedure: as §1
(§6) SHP-77 small cell lung cancer cells were also of interest because they express modest amounts of both enzymes. Inhibition of the growth of cardiomyocytes was used as a measure of cardiotoxicity, and inhibition of the growth of Vero cells, green monkey kidney cells, was again used as another measure of toxicity to normal cells.
A more thorough characterization of the growth inhibition of a variety of cancer cells as well as rat cardiomyocytes by Formula IV (aFK-PABC-Doxaz) was evaluated in comparison with inhibition of growth by Doxaz, Dox and aFK-PABC-Dox. […] […] The breast cancer cell lines represent the multi-drug resistant (MDR) phenotype with MCF-7/Adr cells and a cell line that is transfected with the gene for urokinase plasminogen activator (uPA), the primary enzyme responsible for cleavage of plasminogen to plasmin. Rat cardiomyocytes served as a model for comparison of drug cardiotoxicity.

In a further test the test system is Hep G2. As to the kind of experiment: Growth inhibition of Hep G2 liver cancer cells. The format is cell-based, human. The note with it: crystal violet; for Growth inhibition IC50, Hep G2, 24 h: 24 h drug treatment.
Text: as §5

Another test relates to SHP-77. The test is described as follows: Growth inhibition of SHP-77 small cell lung cancer cells. It counts as cell-based. The note with it: 24 h drug treatment; crystal violet.
Text: as §6

Test [1] concerns H9c2(2-1) rat cardiomyocytes. The test is described as follows: Growth inhibition of rat cardiomyocytes as a measure of cardiotoxicity. The note with it: for Growth inhibition IC50, H9c2(2-1), 24 h: 24 h drug treatment, crystal violet. It counts as cell-based. As to the method: Biological activity of simple Doxazolidine carbamates. Since the prodrug carbamates were designed to be activated by carboxylesterases CES1 (hCE1) and/or CES2 (hiCE), cell lines of interest were measured for expression of the respective mRNAs using reverse transcription (RT) followed by PCR (polymerase chain reaction). Cancer cell lines investigated included SHP-77 resistant small cell lung, DU-145 prostate, MCF-7 sensitive breast, MCF-7/Adr resistant breast, SK-HEP-1 liver, and Hep G2 liver cells. As a measure of possible cardiotoxicity, H9c2(2-1) rat cardiomyocytes were also investigated. Cardiotoxicity is relevant because the ultimate product of metabolism and subsequent hydrolysis of these carbamates is doxorubicin, which is cardiotoxic. […] Additionally, the rat cardiomyocytes, H9c2(2-1), also express more CES2 than CES1.
Cell growth inhibition experiments initially focused on MCF-7, MCF-7/Adr, SK-HEP-1, and Hep G2 cancer cells as well as rat cardiomyocytes as a measure of cardiotoxicity and Vero cells (green monkey kidney cells) as an additional measure of normal cell toxicity. The butyl and pentyl carbamates inhibited the growth of MCF-7, MCF-7/Adr, and SK-HEP-1 cell lines with a 24 h drug treatment period with some selectivity for cancer cells over cardiomyocytes relative to growth inhibition by Dox as shown in Table 2. […] The relative inactivity of the ethyl carbamate may indicate that a substantial lipophilic interaction is required at the active site of the carboxylesterases to hold the Doxaz substrate.
Biological activity of Doxazolidine carbamates with self-eliminating spacer. […] SHP-77 small cell lung cancer cells were also of interest because they express modest amounts of both enzymes. Inhibition of the growth of cardiomyocytes was used as a measure of cardiotoxicity, and inhibition of the growth of Vero cells, green monkey kidney cells, was again used as another measure of toxicity to normal cells. They also show more activity against the cancer cells that express higher levels of CES1. Of particular note is the higher activity against Hep G2 cells than against SK-HEP-1 cells. […] The low toxicity of pentyl PABC-Doxaz to cardiomyocytes relative to the toxicity of Dox is encouraging and consistent with the low level of expression of CES1 in cardiomyocytes.
A more thorough characterization of the growth inhibition of a variety of cancer cells as well as rat cardiomyocytes by Formula IV (aFK-PABC-Doxaz) was evaluated in comparison with inhibition of growth by Doxaz, Dox and aFK-PABC-Dox. Cells were treated with drug for 3 h and colony growth was measured at 3 to 5 days when cells reached about 80% confluence. The cancer cells included one prostate cancer cell line (DU-145), three related breast cancer cell lines (MCF-7, MCF-7/Adr, and MCF-7 uPA), and one pancreatic cancer cell line (Mia PaCa-2). The breast cancer cell lines represent the multi-drug resistant (MDR) phenotype with MCF-7/Adr cells and a cell line that is transfected with the gene for urokinase plasminogen activator (uPA), the primary enzyme responsible for cleavage of plasminogen to plasmin. Rat cardiomyocytes served as a model for comparison of drug cardiotoxicity. Growth inhibition was also measured with added plasmin. aFK-PABC-Doxaz inhibited the growth of most of the cancer cells 0.5 log or more better than did aFK-PABA-Dox. Although not as dramatic, this differential response paralleled the differential response between Doxaz and Dox which is approximately two logs except for the MDR expressing, MCF-7/Adr cells which show more than three logs differential response. […] Addition of 0.01 unit/mL of plasmin has no effect on the activity of Dox but increases the activity of both aFK-PABC-Doxaz and aFK-PABC-Dox, in some cases by more than a log. Addition of 0.01 unit/mL plasminogen increases the activity of aFK-PABC-Doxaz on average by 0.3 log. […]

Another test deals with Vero cells. The test is described as follows: Growth inhibition of Vero cells as a measure of normal cell toxicity (MTT). It counts as cell-based, green monkey. The note with it: 24 h drug treatment.
Text: as §2, §6

The mark [2] stands for this setting: 24 h drug treatment, crystal violet.
The mark [3] stands for this setting: 3 h drug treatment, crystal violet.

Turning to `COc1cccc2c1C(=O)c1c(O)c3c(c(O)c1C2=O)C[C@@](O)(C(=O)CO)C[C@@H]3O[C@H]1C[C@H](NCNC(=O)c2ccccc2O)[C@H](O)[C@H](C)O1` [DoxSF, doxsaliform, reference compound], the IC50 was 800 to 2000 nM in the test on MCF-7/Adr (3 h drug treatment, growth at 5 days); 50 ± 9 nM in the test on MDA-MB-435; 70 to 80 nM with MCF-7 (3 h drug treatment, growth at 5 days, read-out: IC50 MCF-7). Further, the “Less active than DoxF in cancer cell growth inhibition” value with cancer cells is given as 50 fold.
Consider `CCCCOC(=O)N1COC2C(C)OC(OC3CC(O)(C(=O)CO)Cc4c(O)c5c(c(O)c43)C(=O)c3c(OC)cccc3C5=O)CC21` (centres unmarked) [Doxaz Butyl Carbamate], for which the “Growth inhibition IC50, MCF-7/Adr, 24 h” value in the test on MCF-7/Adr (crystal violet) is on record as −6.2 ± 0.3 log of the molar concentration. Also, the “Growth inhibition IC50, SK-HEP-1, 24 h” value with SK-HEP-1 was −6.4 ± 0.2 log of the molar concentration. Moreover, the “Cell growth inhibition IC50, DU-145” value with DU-145 is recorded as −6.4 ± 0.02 log of molar concentrations. The “Growth inhibition IC50, Hep G2, 24 h” value in the test with Hep G2 is recorded as −6.7 ± 0.3 log of the molar concentration. For the same compound, the “Cell growth inhibition IC50, SHP-77” value in the test on SHP-77 is given as −6.6 ± 0.3 log of molar concentrations. In test [1], the “Growth inhibition IC50, H9c2(2-1), 24 h” value is −5.8 ± 0.2 log of the molar concentration. In addition, the “Growth inhibition IC50, Vero, 24 h” value in the test on Vero cells is −6.3 ± 0.1 log of the molar concentration. For the same compound, the “Growth inhibition IC50, MCF-7, 24 h” value in the test on MCF-7 (setting [2]) is on record as −6.1 ± 0.04 log of the molar concentration.
With `CCCCOC(=O)Nc1ccc(COC(=O)N2COC3C(C)OC(OC4CC(O)(C(=O)CO)Cc5c(O)c6c(c(O)c54)C(=O)c4c(OC)cccc4C6=O)CC32)cc1` (centres unmarked) [Butyl PABC-Doxaz], the “Growth inhibition IC50, MCF-7/Adr, 24 h” value in the test with MCF-7/Adr (crystal violet) is −5.9 ± 0.06 log of the molar concentration. For the same compound, the “Growth inhibition IC50, SK-HEP-1, 24 h” value in the test with SK-HEP-1 is reported as −5.8 ± 0.04 log of the molar concentration. Besides, the “Cell growth inhibition IC50, DU-145” value in the test on DU-145 is listed as −6.3 ± 0.3 log of molar concentrations. In the test on Hep G2, the “Growth inhibition IC50, Hep G2, 24 h” value was −7.7 ± 0.03 log of the molar concentration. Further, the “Cell growth inhibition IC50, SHP-77” value in the test with SHP-77 is given as −7.1 ± 0.1 log of molar concentrations. Moreover, in test [1], the “Growth inhibition IC50, H9c2(2-1), 24 h” value was −7.2 ± 0.2 log of the molar concentration. Further, in the test on Vero cells, the “Growth inhibition IC50, Vero, 24 h” value is given as −6.1 ± 0.08 log of the molar concentration. Further, the “Growth inhibition IC50, MCF-7, 24 h” value in the test with MCF-7 (setting [2]) is reported as −4.1 ± 0.3 log of the molar concentration.
For the compound `CCOC(=O)N1COC2C(C)OC(OC3CC(O)(C(=O)CO)Cc4c(O)c5c(c(O)c43)C(=O)c3c(OC)cccc3C5=O)CC21` (centres unmarked) [Doxaz Ethyl Carbamate], the “Growth inhibition IC50, MCF-7/Adr, 3 h” value in the test on MCF-7/Adr (setting [3]) is given as −5.3 ± 0.04 log of the molar concentration. Also, in the test with MCF-7/Adr (crystal violet), the “Growth inhibition IC50, MCF-7/Adr, 24 h” value is recorded as >−5 log of the molar concentration. In addition, the “Growth inhibition IC50, SK-HEP-1, 3 h” value in the test with SK-HEP-1 (3 h drug treatment) is recorded as >−6 log of the molar concentration. The “Growth inhibition IC50, SK-HEP-1, 24 h” value with SK-HEP-1 is recorded as >−6 log of the molar concentration. Moreover, the “Growth inhibition IC50, Hep G2, 3 h” value in the test on Hep G2 (3 h drug treatment) was >−6 log of the molar concentration. The “Growth inhibition IC50, Hep G2, 24 h” value in the test on Hep G2 is >−6 log of the molar concentration. Further, the “Growth inhibition IC50, H9c2(2-1), 3 h” value in test [1] (3 h drug treatment, MTT) is on record as −5.8 ± 0.2 log of the molar concentration. For the same compound, the “Growth inhibition IC50, MCF-7, 3 h” value in the test with MCF-7 (setting [3]) was >−6 log of the molar concentration. Also, the IC50 with MCF-7 (24 h drug treatment, crystal violet, read-out: Growth inhibition IC50, MCF-7, 24 h) is > 1000 nM.
In the case of `COc1cccc2c1C(=O)c1c(O)c3c(c(O)c1C2=O)C[C@@](O)(C(=O)CO)C[C@@H]3O[C@H]1C[C@H](N)[C@@H](O)[C@H](C)O1` [Epi, Epidoxorubicin, reference compound], the IC50 is > 10000 nM in the test with MCF-7/Adr (Homo sapiens, NCI/ADR-RES); 380 ± 52 nM in the test on DU-145 (Homo sapiens, DU-145, read-out: IC50 DU-145); 200 nM with MCF-7 (Homo sapiens, MCF7, read-out: IC50 MCF-7, 3 h drug treatment, growth at 5 days).
